Laboratory results as given in US20230227437A1, “IMMUNOMODULATOR” (priority 2020, published 2023).

Legend:
[1] = biological target: T1, hIL-17A (Homo sapiens, UniProt Q16552); test: Inhibition of hIL-17A-induced chemokine GROα/CXCL1 production in HT-29 cell; format: cell-based
T1 construct: purchased R&D 317-ILB
T1 sequence (Q16552 20-155 limits assumed): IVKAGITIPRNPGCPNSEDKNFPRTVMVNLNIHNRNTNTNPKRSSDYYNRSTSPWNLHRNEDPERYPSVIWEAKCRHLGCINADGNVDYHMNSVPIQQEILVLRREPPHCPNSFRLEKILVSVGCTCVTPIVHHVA
Experimental: Human colorectal adenocarcinoma cell HT-29 was inoculated to a 96-well plate (5×10^4 for per well), and incubated at 37° C. on an incubator overnight. A mixture of 30 ng/mL hIL-17A protein (R&D, #317-ILB) with gradient concentrations of IL-17A small molecule inhibitors or with 0.3 μg/mL positive control IL-17A antibody (R&D, #AF-317-NA) was incubated for 1 h at 37° C., and added into the 96-well plate to incubated with HT-29 at 37° C. for 48 h. A level of GROα in a cell culture supernatant was then detected using an ELISA kit for GROα (Cisbio, #62HCXC1peg).
Inhibitory effect of the compound prepared in Examples on hIL-17A-induced chemokine GROα/CXCL1 production in HT-29 cell was tested according to the methods of Experimental Examples 1 and 2. […] “-” indicated not tested. According to the results, the compounds provided herein have good human IL-17A inhibitory activity and can be effectively used in the treatment of diseases associated with abnormal hIL-17A activity.

[2] = biological target: T2, human IL-17A (hIL-17A) (Homo sapiens, UniProt Q16552); test: IL-17A enzyme-linked immunosorbent assay (competitive ELISA, receptor-ligand binding)
T2 construct: purchased Sino Biological Inc. 12047-H07B
T2 sequence (Q16552 24-155): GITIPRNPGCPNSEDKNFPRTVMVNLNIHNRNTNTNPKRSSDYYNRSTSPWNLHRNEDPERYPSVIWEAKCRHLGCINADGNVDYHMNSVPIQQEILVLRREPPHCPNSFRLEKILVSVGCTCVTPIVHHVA
Experimental: The inhibition of receptor-ligand binding by human IL-17A (hIL-17A) inhibitors was detected by competitive ELISA. A 96-well plate was inoculated 0.2 μg/ml IL-17 (Sino Biological Inc. Cat #12047-H07B) for incubation at 37° C. for 30 min, 100 μL for per well. The 96-well plate was washed four times with phosphate buffered saline (PBS) containing Tween-20 (PBST, 0.05% Tween-20), 200 μL for per well each time. 200 μL of 5% skim milk were added into the 96-well plate for incubation on a shaker at 25° C. for 30 min. The 96-well plate was washed four times with PBST (0.05% Tween-20), and added with 89 μL of PBST and 1 μL of a compound to be measured (100×), in which a concentration the compound to be measured (100×) was 0.003 μM-30 μM. The mixture was mixed evenly and incubated at 25° C. for 10 min. The mixture was added with 10 μL of 16 nM IL-17R, followed by incubation at 25° C. for 30 min. After washing the 96-well plate 4 times, 100 μL of anti-Fc tag horseradish peroxidase (HRP) coupled antibody were added for incubation on a shaker at 25° C. for 30 min. After washing the 96-well plate 4 times, 100 μL of 3,3′,5,5′-tetramethylbenzidine (TMB) substrate solution were added to the 96-well plate for incubation away from light at 25° C. After addition of 20% HCl, an absorbance was measure by a microplate reader at 450 nm.
The compounds prepared according to the above method were assayed for human IL-17A inhibitory activity.

## Cc1n[nH]c(C)c1-c1ccc(NC(=O)[C@@H](NC(=O)c2ccnn2C(C)C)C2c3ccc(F)c(F)c3OCC23CC3)cc1 (stereo partly drawn) [Compound 56]
[1]
  IC50: 355 nM
[2]
  IC50: 139 nM

## Cc1n[nH]c(C)c1-c1ccc(NC(=O)[C@@H](NC(=O)c2c(C(C)C)no[n+]2[O-])C2c3c(F)cc(F)cc3OCC23CC3)cc1 (stereo partly drawn) [Compound 61]
[2]
  IC50: 339 nM

## Cc1n[nH]c(C)c1-c1ccc(NC(=O)[C@@H](NC(=O)c2nonc2C(C)C)C2c3ccc(F)cc3OCC23CC3)cc1F (stereo partly drawn) [Compound 40]
[1]
  IC50: 115 nM
[2]
  IC50: 186 nM

## Cc1n[nH]c(C)c1-c1ncc(NC(=O)[C@@H](NC(=O)c2ccnn2C(C)C)C2c3cc(F)cc(F)c3OCC23CC3)cc1F (stereo partly drawn) [Compound 72]
[1]
  IC50: 1810 nM
[2]
  IC50: 343 nM

## Cc1n[nH]c(C)c1-c1ccc(NC(=O)[C@@H](NC(=O)c2conc2C2CC2)C2c3cc(F)c(F)cc3OCC23CC3)cn1 (stereo partly drawn) [Compound 97]
[1]
  IC50: 221 nM
[2]
  IC50: 165 nM

## Cc1nonc1C(=O)N[C@H](C(=O)Nc1ccc(-c2c(C)n[nH]c2C)nc1)C1c2ccc(F)cc2OCC12CC2 (stereo partly drawn) [Compound 27]
[1]
  IC50: 672 nM
[2]
  IC50: 119 nM

## CCc1nonc1C(=O)N[C@H](C(=O)Nc1ccc(-c2c(C)n[nH]c2C)cc1)C1c2cc(F)cc(F)c2OCC12CC2 (stereo partly drawn) [Compound 77]
[1]
  IC50: 1010 nM
[2]
  IC50: 320 nM

## Cc1n[nH]c(C)c1-c1ccc(NC(=O)[C@@H](NC(=O)c2ccnn2C(C)C)C2c3cc(F)ccc3OCC23CC3)cn1 (stereo partly drawn) [Compound 20]
[1]
  IC50: 878 nM
[2]
  IC50: 61 nM

## Cc1n[nH]c(C)c1-c1ccc(NC(=O)[C@@H](NC(=O)c2conc2C2CC2)C2c3cc(F)c(F)cc3OCC23CC3)cc1 (stereo partly drawn) [Compound 98]
[2]
  IC50: 222 nM

## Cc1n[nH]c(C)c1-c1ncc(NC(=O)[C@@H](NC(=O)c2conc2C2CC2)C2c3cc(F)c(F)cc3OCC23CC3)cc1F (stereo partly drawn) [Compound 96]
[1]
  IC50: 134 nM
[2]
  IC50: 125 nM

## CCc1nonc1C(=O)N[C@H](C(=O)Nc1ccc(-c2c(C)n[nH]c2C)cc1)C1c2cc(F)ccc2OCC12CC2 (stereo partly drawn) [Compound 25]
[1]
  IC50: 194 nM
[2]
  IC50: 56 nM

## Cc1n[nH]c(C)c1-c1ccc(NC(=O)[C@@H](NC(=O)c2ccnn2C)C2c3cc(F)ccc3CC23CC3)cc1 (stereo partly drawn) [Compound 2]
[1]
  IC50: 196 nM
[2]
  IC50: 41 nM

## Cc1nonc1C(=O)N[C@H](C(=O)Nc1ccc(-c2c(C)n[nH]c2C)cc1)C1c2c(F)cc(F)cc2OCC12CC2 (stereo partly drawn) [Compound 52]
[2]
  IC50: 402 nM

## Cc1n[nH]c(C)c1-c1ccc(NC(=O)[C@@H](NC(=O)OC2CC2)C2c3cc(F)c(F)cc3OCC23CC3)cn1 (stereo partly drawn) [Compound 105]
[1]
  IC50: 943 nM
[2]
  IC50: 81 nM

## Cc1n[nH]c(C)c1-c1ncc(NC(=O)[C@@H](NC(=O)c2nonc2C(C)C)C2c3cc(F)cc(F)c3OCC23CC3)cc1F (stereo partly drawn) [Compound 68]
[1]
  IC50: 1940 nM
[2]
  IC50: 503 nM

## Cc1n[nH]c(C)c1-c1ccc(NC(=O)[C@@H](NC(=O)c2nocc2C(C)C)C2c3ccc(F)cc3OCC23CC3)cn1 (stereo partly drawn) [Compound 33]
[1]
  IC50: 92 nM
[2]
  IC50: 219 nM

## Cc1n[nH]c(C)c1-c1ncc(NC(=O)[C@@H](NC(=O)c2nonc2C(C)C)C2c3ccc(F)cc3OCC23CC3)cc1F (stereo partly drawn) [Compound 39]
[1]
  IC50: 856 nM
[2]
  IC50: 111 nM

## Cc1n[nH]c(C)c1-c1ncc(NC(=O)[C@@H](NC(=O)c2ccnn2C(C)C)C2c3ccc(F)c(F)c3OCC23CC3)cc1F (stereo partly drawn) [Compound 51]
[1]
  IC50: 313 nM
[2]
  IC50: 155 nM

## Cc1n[nH]c(C)c1-c1ccc(NC(=O)[C@@H](NC(=O)c2ccnn2C)C2c3ccc(F)cc3OCC23CC3)cc1 (stereo partly drawn) [Compound 17]
[1]
  IC50: 68 nM
[2]
  IC50: 36 nM

## Cc1n[nH]c(C)c1-c1ccc(NC(=O)[C@@H](NC(=O)c2nonc2C(C)C)C2c3cc(F)c(F)cc3OCC23CC3)cn1 (stereo partly drawn) [Compound 44]
[1]
  IC50: 336 nM
[2]
  IC50: 122 nM

## CCc1nocc1C(=O)N[C@H](C(=O)Nc1ccc(-c2c(C)n[nH]c2C)cc1)C1c2ccc(F)cc2OCC12CC2 (stereo partly drawn) [Compound 36]
[1]
  IC50: 58 nM
[2]
  IC50: 144 nM

## Cc1n[nH]c(C)c1-c1ncc(NC(=O)[C@@H](NC(=O)c2nonc2C2CC2)C2c3cc(F)c(F)cc3OCC23CC3)cc1F (stereo partly drawn) [Compound 92]
[1]
  IC50: 9650 nM
[2]
  IC50: 187 nM

## Cc1n[nH]c(C)c1-c1ccc(NC(=O)[C@@H](NC(=O)c2nonc2C(C)C)C2c3c(F)ccc(F)c3OCC23CC3)cc1 (stereo partly drawn) [Compound 82]
[2]
  IC50: 2030 nM

## Cc1n[nH]c(C)c1-c1ncc(NC(=O)[C@@H](NC(=O)c2nonc2C(C)C)C2c3ccc(F)c(F)c3OCC23CC3)cc1F (stereo partly drawn) [Compound 64]
[1]
  IC50: 335 nM
[2]
  IC50: 154 nM

## Cc1nonc1C(=O)N[C@H](C(=O)Nc1ccc(-c2c(C)n[nH]c2C)cc1)C1c2c(F)cccc2CC12CC2 (stereo partly drawn) [Compound 14]
[1]
  IC50: 206 nM
[2]
  IC50: 59 nM

## Cc1n[nH]c(C)c1-c1ncc(NC(=O)[C@@H](NC(=O)c2ccnn2C(C)C)C2c3ccc(F)cc3OCC23CC3)cc1F (stereo partly drawn) [Compound 90]
[1]
  IC50: 188 nM
[2]
  IC50: 144 nM

## Cc1n[nH]c(C)c1-c1ccc(NC(=O)[C@@H](NC(=O)c2ccnn2C)C2c3ccccc3OCC23CC3)cc1 (stereo partly drawn) [Compound 3]
[1]
  IC50: 213 nM
[2]
  IC50: 40 nM

## Cc1n[nH]c(C)c1-c1ccc(NC(=O)[C@@H](NC(=O)c2ccnn2C(C)C)C2c3c(F)ccc(F)c3OCC23CC3)cc1 (stereo partly drawn) [Compound 76]
[1]
  IC50: 1050 nM
[2]
  IC50: 270 nM

## COCCc1nocc1C(=O)N[C@H](C(=O)Nc1ccc(-c2c(C)n[nH]c2C)cc1)C1c2cc(F)c(F)cc2OCC12CC2 (stereo partly drawn) [Compound 104]
[2]
  IC50: 116 nM

## Cc1n[nH]c(C)c1-c1ccc(NC(=O)[C@@H](NC(=O)c2ccnn2C(C)C)C2c3cc(F)c(F)cc3OCC23CC3)cn1 (stereo partly drawn) [Compound 62]
[1]
  IC50: 177 nM
[2]
  IC50: 151 nM

## Cc1n[nH]c(C)c1-c1ncc(NC(=O)[C@@H](NC(=O)c2ccnn2C)C2c3ccc(F)cc3CC23CC3)cc1F (stereo partly drawn) [Compound 30]
[1]
  IC50: 229 nM
[2]
  IC50: 65 nM

## Cc1nonc1C(=O)N[C@H](C(=O)Nc1cnc(-c2c(C)n[nH]c2C)c(F)c1)C1c2ccc(F)cc2CC12CC2 (stereo partly drawn) [Compound 29]
[1]
  IC50: 378 nM
[2]
  IC50: 152 nM

## Cc1n[nH]c(C)c1-c1ccc(NC(=O)[C@@H](NC(=O)c2ccnn2C(C)C)C2c3cc(F)c(F)cc3OCC23CC3)cc1 (stereo partly drawn) [Compound 48]
[1]
  IC50: 184 nM
[2]
  IC50: 135 nM

## COCCc1nocc1C(=O)N[C@H](C(=O)Nc1cnc(-c2c(C)n[nH]c2C)c(F)c1)C1c2cc(F)c(F)cc2OCC12CC2 (stereo partly drawn) [Compound 88]
[2]
  IC50: 100 nM

## Cc1nonc1C(=O)N[C@H](C(=O)Nc1ccc(-c2c(C)n[nH]c2C)cc1)C1c2c(F)ccc(F)c2OCC12CC2 (stereo partly drawn) [Compound 81]
[2]
  IC50: 2060 nM

## Cc1n[nH]c(C)c1-c1ncc(NC(=O)[C@@H](NC(=O)c2ccnn2C(C)C)C2c3c(F)ccc(F)c3OCC23CC3)cc1F (stereo partly drawn) [Compound 83]
[2]
  IC50: 2020 nM

## Cc1n[nH]c(C)c1-c1ccc(NC(=O)[C@@H](NC(=O)c2nonc2C(C)C)C2c3c(F)ccc(F)c3OCC23CC3)cn1 (stereo partly drawn) [Compound 79]
[2]
  IC50: 32500 nM

## Cc1n[nH]c(C)c1-c1ncc(NC(=O)[C@@H](NC(=O)c2nonc2C(C)C)C2c3c(F)ccc(F)c3OCC23CC3)cc1F (stereo partly drawn) [Compound 84]
[2]
  IC50: 9810 nM

## Cc1n[nH]c(C)c1-c1ccc(NC(=O)[C@@H](NC(=O)c2ccnn2C(C)C)C2c3c(F)cc(F)cc3OCC23CC3)cc1 (stereo partly drawn) [Compound 54]
[2]
  IC50: 136 nM

## CCc1nonc1C(=O)N[C@H](C(=O)Nc1ccc(-c2c(C)n[nH]c2C)cc1)C1c2c(F)cc(F)cc2OCC12CC2 (stereo partly drawn) [Compound 53]
[2]
  IC50: 554 nM

## Cn1nccc1C(=O)N[C@H](C(=O)Nc1ccc(N2CCOCC2)nc1)C1c2ccccc2CC12CC2 (stereo partly drawn) [Compound 10]
[2]
  IC50: 98 nM

## Cc1n[nH]c(C)c1-c1ccc(NC(=O)[C@@H](NC(=O)c2nonc2C(C)C)C2c3c(F)cc(F)cc3OCC23CC3)cn1 (stereo partly drawn) [Compound 66]
[2]
  IC50: 7130 nM

## Cc1n[nH]c(C)c1-c1ccc(NC(=O)[C@@H](NC(=O)c2ccnn2C(C)C)C2c3c(F)ccc(F)c3OCC23CC3)cn1 (stereo partly drawn) [Compound 75]
[2]
  IC50: 5000 nM

## CCc1nonc1C(=O)N[C@H](C(=O)Nc1ccc(-c2c(C)n[nH]c2C)cc1)C1c2c(F)ccc(F)c2OCC12CC2 (stereo partly drawn) [Compound 78]
[2]
  IC50: 985 nM
